Patent US20240174718A1, “RYANODINE RECEPTOR INHIBITOR COMPOUNDS AND METHODS RELATING THERETO” (Vanderbilt University, priority 2022, published 2024)
Values joined by “and” are separate entries in the source; they are usually repeats but may differ in a detail not shown here. Equal entries are not always repeated.

Experiments:
Plasma stability ex vivo = type: in vitro ADME; settings: mouse; murine plasma, 37° C., two hours; read-out: parent compound remaining in plasma
Protocol: FIGS. 11(A-B) show in vivo pharmacokinetics in mice for a compound of the present invention. […] N=3 mice. Plasma collected serially at 0.167, 0.333. 0.5, 1, 3, and 8 hours post-administration. […] Individual data points (grey) shown alongside mean values with connecting lines.
Plasma stability experiments—Drug-free mouse plasma was preincubated in a 96-well polypropylene plate for 30 minutes on a microplate shaker at 37° C. prior to the addition of ent-B1 (final concentration 1900 ng/mL). Drug was added to individual wells (n=3 per compound), mixed thoroughly, and 50 μL of plasma was removed at 0, 15, 30, 45 60, 90, and 120 minutes to evaluate compound stability in mouse plasma at 37° C. Samples removed at each time point were transferred to a 96-well polypropylene plate containing 300 μL of ice-cold acetonitrile containing internal standard (ent-verticilide-d12; 100 ng/mL). Samples were mixed multiple times with a pipette to ensure precipitation of plasma proteins and the plate was covered with an adhesive film to prevent solvent evaporation. […] Peak area ratios of the analyte and internal standard for each sample were analyzed by liquid chromatography coupled to tandem mass spectrometry (LC-MS/MS) and normalized to the area ratio for time point 0 (baseline) to calculate the percent of ent-B1 remaining at each time point. […]

RyR2 = target: T1, RyR2 (Sus scrofa, UniProt A0A5G2R1W3); assay: [3H]ryanodine ligand binding assay in cardiac SR vesicles; parameters: species or system porcine; settings: relative to vehicle (DMSO)
T1 construct: isolated SR vesicles derived from porcine cardiac muscle; from tissue; host or cells: porcine heart (cardiac sarcoplasmic reticulum vesicles)
Protocol: RyR2 activity was quantified by the fraction of [^3H]ryanodine bound to RyR2. […] Data are shown as mean±SD (n=6).
[^3H]ryanodine ligand binding assay—[^3H]ryanodine, [9,21-3H(N)] (56 Ci/mmol) was obtained from PerkinElmer. Porcine cardiac SR vesicles were isolated as previously described (Fruen et al., 2000) and incubated with, 200 nM CaM binding peptide, 0.1 μM CaCl2, 20 mM PIPES, 150 mM KCl, 5 mM GSH, 0.1 mg/mL BSA, 1 μg/mL aprotininin, lug/mL leupeptin, and 1 μM DTT for 30 min at 37° C. […] In 96-well plates, cardiac SR membranes (CSR, 3 mg/mL) were pre-incubated with 1% v/v ent-B1 (to yield the indicated drug concentrations) for 30 min, at 22° C., in a solution containing 150 mM KCl, 5 mM GSH, 1 μg/mL Aprotinin/Leupeptin, 1 mM EGTA, and 23 μM or 1.62 mM CaCl2 (100 nM or 30 μM free Ca^2+, respectively as determined by MaxChelator), 0.1 mg/mL BSA, and 20 mM K-PIPES (pH 7.0). Non-specific [^3H]ryanodine binding to SR was assessed by addition of 15 μM non-radioactive ryanodine. Maximal [^3H]ryanodine binding was assessed by addition of 5 mM adenylyl-imidodiphosphate (AMP-PNP), supplemented with 20 mM caffeine. […] Binding of [^3H]ryanodine (7.5 nM) was determined following a 3 h incubation at 37° C. and filtration through grade GF/B glass microfiber filters (Brandel Inc., Gaithersburg, MD, US) using a M96T-Brandel Harvester. […]

T1 sequence (A0A5G2R1W3 20-4900): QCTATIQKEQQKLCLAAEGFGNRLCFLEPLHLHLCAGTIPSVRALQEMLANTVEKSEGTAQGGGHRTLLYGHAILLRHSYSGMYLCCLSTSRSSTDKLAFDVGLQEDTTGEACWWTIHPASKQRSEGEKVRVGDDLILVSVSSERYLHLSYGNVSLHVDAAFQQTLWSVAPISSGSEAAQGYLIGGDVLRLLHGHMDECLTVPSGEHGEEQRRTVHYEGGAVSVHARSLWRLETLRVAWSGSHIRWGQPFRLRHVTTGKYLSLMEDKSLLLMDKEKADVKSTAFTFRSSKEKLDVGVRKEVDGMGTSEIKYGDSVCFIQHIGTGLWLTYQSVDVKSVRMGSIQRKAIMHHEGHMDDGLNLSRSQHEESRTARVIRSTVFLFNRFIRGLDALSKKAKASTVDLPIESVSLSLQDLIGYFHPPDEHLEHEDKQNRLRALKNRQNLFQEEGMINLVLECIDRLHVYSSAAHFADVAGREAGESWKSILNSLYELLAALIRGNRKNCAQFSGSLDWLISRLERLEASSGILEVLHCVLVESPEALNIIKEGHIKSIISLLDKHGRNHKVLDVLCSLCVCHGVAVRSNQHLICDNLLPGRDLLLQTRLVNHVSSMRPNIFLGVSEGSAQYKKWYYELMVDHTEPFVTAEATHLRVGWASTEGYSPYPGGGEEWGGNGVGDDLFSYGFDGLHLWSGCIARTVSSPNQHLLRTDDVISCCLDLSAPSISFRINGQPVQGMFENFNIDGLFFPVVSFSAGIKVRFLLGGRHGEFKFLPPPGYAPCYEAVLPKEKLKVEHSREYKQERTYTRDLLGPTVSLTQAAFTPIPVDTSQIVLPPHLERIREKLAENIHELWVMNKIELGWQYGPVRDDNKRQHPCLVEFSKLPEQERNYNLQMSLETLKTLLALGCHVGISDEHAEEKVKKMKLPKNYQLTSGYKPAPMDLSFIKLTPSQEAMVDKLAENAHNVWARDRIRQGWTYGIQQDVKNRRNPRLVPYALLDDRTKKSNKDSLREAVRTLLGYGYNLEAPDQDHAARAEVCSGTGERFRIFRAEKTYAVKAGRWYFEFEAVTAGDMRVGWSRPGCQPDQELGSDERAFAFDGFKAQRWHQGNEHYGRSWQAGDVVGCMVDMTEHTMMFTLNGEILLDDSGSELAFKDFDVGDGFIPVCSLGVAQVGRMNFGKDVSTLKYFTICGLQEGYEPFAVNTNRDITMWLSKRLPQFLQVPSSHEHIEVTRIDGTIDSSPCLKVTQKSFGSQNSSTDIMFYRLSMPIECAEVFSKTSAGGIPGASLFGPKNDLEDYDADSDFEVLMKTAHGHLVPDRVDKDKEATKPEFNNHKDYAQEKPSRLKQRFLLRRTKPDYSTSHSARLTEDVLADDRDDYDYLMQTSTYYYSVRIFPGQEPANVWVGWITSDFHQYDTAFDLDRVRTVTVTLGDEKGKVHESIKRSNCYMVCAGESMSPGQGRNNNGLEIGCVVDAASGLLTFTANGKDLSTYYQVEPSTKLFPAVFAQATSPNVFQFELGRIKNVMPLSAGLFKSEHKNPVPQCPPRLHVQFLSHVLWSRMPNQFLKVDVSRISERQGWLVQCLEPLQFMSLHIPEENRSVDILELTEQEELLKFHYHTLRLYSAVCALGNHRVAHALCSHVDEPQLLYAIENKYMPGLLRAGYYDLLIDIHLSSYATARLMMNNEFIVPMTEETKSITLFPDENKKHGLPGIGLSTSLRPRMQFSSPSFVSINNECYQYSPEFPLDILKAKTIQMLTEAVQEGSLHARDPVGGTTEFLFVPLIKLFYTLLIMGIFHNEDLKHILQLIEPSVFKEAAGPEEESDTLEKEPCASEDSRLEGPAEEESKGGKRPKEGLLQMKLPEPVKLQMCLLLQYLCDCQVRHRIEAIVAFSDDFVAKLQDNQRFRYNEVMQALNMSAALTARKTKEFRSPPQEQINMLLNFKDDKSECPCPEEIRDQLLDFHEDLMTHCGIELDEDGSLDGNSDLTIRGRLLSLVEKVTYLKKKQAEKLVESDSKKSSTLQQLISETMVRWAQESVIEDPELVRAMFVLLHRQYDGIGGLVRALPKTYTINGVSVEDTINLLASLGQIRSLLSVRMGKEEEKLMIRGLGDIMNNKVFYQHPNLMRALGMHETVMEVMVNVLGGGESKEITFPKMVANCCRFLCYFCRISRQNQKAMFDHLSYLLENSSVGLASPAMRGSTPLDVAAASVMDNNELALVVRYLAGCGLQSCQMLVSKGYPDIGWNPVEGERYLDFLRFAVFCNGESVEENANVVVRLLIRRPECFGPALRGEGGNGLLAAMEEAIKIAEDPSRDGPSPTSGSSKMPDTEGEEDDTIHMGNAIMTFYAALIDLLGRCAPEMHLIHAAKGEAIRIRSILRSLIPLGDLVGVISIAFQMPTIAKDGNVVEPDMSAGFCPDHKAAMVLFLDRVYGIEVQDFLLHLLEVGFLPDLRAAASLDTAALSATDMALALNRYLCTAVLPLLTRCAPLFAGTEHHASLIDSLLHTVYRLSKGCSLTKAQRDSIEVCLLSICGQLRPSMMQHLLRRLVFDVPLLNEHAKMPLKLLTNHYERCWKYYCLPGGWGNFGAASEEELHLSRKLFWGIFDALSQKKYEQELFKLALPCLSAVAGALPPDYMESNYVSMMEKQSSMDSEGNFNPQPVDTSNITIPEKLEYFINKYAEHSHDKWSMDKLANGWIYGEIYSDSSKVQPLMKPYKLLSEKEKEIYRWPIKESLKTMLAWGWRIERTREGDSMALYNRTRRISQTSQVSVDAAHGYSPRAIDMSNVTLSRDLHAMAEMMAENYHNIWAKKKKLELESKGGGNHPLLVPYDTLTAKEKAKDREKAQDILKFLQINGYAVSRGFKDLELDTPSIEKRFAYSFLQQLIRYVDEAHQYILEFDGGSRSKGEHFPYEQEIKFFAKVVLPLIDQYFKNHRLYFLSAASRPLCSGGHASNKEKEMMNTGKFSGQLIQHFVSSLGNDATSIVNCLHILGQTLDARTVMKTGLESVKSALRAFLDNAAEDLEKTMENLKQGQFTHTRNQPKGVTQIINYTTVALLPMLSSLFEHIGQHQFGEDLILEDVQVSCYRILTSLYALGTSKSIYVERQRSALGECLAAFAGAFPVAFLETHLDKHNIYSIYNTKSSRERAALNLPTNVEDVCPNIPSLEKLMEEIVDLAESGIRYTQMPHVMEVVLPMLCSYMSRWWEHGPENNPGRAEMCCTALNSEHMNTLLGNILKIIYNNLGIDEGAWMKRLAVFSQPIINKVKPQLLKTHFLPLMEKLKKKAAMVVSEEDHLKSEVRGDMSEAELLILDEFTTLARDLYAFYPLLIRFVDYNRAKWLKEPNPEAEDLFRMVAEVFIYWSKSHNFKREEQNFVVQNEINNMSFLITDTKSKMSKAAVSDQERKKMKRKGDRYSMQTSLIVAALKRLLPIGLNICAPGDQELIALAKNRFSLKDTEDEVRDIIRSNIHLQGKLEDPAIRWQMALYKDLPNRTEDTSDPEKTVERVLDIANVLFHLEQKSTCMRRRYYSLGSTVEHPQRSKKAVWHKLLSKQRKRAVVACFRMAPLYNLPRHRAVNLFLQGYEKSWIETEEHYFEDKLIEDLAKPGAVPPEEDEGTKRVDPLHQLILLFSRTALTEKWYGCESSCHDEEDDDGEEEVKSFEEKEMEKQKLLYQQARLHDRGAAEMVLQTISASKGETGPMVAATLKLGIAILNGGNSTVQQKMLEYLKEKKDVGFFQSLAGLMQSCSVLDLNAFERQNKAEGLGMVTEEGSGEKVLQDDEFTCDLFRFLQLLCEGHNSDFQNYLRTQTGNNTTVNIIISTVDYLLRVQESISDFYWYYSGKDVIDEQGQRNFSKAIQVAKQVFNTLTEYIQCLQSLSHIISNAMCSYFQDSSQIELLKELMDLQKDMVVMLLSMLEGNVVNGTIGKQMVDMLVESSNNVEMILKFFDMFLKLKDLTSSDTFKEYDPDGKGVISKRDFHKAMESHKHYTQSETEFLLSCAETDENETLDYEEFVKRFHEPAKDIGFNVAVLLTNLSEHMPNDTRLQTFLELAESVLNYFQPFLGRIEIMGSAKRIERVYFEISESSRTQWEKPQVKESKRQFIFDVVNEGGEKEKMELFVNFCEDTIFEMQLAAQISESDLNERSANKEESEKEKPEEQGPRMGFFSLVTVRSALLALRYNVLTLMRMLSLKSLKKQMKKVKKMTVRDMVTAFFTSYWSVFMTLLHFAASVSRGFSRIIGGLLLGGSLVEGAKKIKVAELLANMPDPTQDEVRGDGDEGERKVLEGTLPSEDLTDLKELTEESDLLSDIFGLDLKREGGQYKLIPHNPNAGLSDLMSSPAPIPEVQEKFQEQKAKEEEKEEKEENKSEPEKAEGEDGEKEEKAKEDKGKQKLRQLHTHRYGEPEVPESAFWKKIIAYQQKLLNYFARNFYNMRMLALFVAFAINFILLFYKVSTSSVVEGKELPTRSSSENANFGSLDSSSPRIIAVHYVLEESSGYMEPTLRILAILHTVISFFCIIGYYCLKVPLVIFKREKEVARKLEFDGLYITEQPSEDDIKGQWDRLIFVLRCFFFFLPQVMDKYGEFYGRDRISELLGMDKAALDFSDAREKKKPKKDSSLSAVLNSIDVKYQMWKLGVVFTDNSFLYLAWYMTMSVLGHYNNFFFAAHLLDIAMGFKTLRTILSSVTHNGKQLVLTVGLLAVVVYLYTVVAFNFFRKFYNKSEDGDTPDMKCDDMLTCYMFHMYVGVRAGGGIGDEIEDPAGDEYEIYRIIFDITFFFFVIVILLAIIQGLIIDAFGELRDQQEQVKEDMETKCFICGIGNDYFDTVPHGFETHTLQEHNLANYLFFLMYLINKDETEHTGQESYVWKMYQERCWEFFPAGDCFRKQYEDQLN

With CCCCC[C@@H]1OC(=O)[C@@H](C)N(C)C(=O)[C@H](CCCCC)OC(=O)[C@@H](C)N(C)C(=O)[C@H](CCCCC)OC(=O)[C@@H](C)N(C)C1=O (single isomer, unassigned) [ent-B1] the remaining at 2 h, 1900 ng/mL (Plasma stability ex vivo) was about 95% and the IC50 (RyR2) was 1900 nM and 1930 nM.
